Assay results as given in patent publication US20240245786A1, “SMALL MOLECULE DEGRADERS OF PHOSPHATIDYLINOSITOL-5-PHOSPHATE 4-KINASE TYPE 2 AND USES THEREOF” (DANA-FARBER CANCER INSTITUTE, INC., priority 2020, published 2024).

Legend:
[1] = target: T1, PIP4K2A (Homo sapiens, UniProt P48426); assay: IC50 for bifunctional compound 1, PIP4K2A (biochemical binding affinity)
T1 sequence (P48426 1-406): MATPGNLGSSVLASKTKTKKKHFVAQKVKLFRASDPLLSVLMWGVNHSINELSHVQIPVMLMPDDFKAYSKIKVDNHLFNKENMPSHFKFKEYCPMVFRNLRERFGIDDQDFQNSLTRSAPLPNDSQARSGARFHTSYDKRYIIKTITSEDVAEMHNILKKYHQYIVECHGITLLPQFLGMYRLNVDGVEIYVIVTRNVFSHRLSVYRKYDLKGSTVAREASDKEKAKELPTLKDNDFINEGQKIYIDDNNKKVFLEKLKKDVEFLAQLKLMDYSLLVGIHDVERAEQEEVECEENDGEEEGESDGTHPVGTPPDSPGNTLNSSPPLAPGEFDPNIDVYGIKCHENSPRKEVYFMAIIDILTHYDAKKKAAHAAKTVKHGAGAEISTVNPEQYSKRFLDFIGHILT

[2] = target: T2, PIP4K2B (Homo sapiens, UniProt P78356); assay: IC50 for bifunctional compound 1, PIP4K2B (biochemical binding affinity)
T2 sequence (P78356 1-416): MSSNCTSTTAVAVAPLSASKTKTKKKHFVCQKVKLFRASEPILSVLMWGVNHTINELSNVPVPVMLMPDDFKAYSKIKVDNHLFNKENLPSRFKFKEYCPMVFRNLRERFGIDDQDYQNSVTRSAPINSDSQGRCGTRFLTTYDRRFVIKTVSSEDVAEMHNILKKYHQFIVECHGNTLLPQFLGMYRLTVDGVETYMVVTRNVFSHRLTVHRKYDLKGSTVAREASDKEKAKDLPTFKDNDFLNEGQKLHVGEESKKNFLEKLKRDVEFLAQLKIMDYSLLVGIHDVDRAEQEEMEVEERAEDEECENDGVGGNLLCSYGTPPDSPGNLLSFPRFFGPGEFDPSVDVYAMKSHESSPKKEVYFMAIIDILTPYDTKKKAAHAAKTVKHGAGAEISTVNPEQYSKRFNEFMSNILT

[3] = target: T3, ETS2 Repressor Factor (ERF) (Homo sapiens, UniProt P50548); assay: Proteomics analysis (TMT LC-MS3) of Molt4 cells, ERF; details: 1 μM, 5 h
T3 sequence (P50548 1-548): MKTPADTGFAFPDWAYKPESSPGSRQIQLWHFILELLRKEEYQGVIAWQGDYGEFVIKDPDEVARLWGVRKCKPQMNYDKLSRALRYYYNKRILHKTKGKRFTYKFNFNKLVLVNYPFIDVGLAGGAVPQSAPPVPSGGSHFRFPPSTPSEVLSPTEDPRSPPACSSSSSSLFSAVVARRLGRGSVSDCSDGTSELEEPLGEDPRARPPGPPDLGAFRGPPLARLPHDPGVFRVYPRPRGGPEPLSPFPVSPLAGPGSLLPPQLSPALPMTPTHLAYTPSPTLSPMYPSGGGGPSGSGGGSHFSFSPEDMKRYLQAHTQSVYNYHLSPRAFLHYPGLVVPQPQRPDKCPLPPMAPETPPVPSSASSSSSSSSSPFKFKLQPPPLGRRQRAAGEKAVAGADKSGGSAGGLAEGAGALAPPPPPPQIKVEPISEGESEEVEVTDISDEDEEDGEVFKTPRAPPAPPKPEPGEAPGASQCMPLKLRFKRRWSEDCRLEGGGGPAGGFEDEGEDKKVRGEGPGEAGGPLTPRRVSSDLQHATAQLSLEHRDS
Experimental: (§1) Molt4 cells were treated with DMSO or the indicated compound for 5 h, and cells were harvested by centrifugation. […] The homogenized sample was clarified by centrifugation at 20,000×g for 10 min at 4° C. A micro-BCA assay (Pierce™) was used to determine the final protein concentration in the cell lysate. […] Proteins were precipitated using methanol/chloroform. In brief, four volumes of methanol were added to the cell lysate, followed by one volume of chloroform, and finally three volumes of water. The mixture was vortexed and centrifuged at 14,000×g for 5 min to separate the chloroform phase from the aqueous phase. […] The sample channels were combined in a 1:1:1:1:1:1:1:1:1:1 ratio, desalted using C18 solid phase extraction cartridges (Waters®) and analyzed by liquid chromatography-mass spectrometry (LC-MS) for channel ratio comparison. Samples were then combined using the adjusted volumes determined in the channel ratio analysis and dried down in a speed vacuum. […]
(§2) Proteome Discoverer™ 2.2 (Thermo Fisher) was used for RAW file processing and controlling peptide and protein level false discovery rates, assembling proteins from peptides, and protein quantification from peptides. […] TMT reporter ion intensities were measured using a 0.003 Da window around the theoretical m z for each reporter ion in the MS3 scan. […]

[4] = target: T1, PIP4K2A; assay: Proteomics analysis (TMT LC-MS3) of Molt4 cells, PIP4K2A abundance; details: 1 μM, 5 h
Experimental: as §1, §2

[5] = target: T2, PIP4K2B; assay: Proteomics analysis (TMT LC-MS3) of Molt4 cells, PIP4K2B abundance; details: 1 μM, 5 h
Experimental: as §1, §2

[6] = target: T3, ETS2 Repressor Factor (ERF); assay: Immunoblot of ERF degradation in Molt4 cells (FIG. 1D); format: cell-based; parameters: immunoblot of PIP4K2A, PIP4K2B, PIP4K2C, and ERF degradation in Molt4 cells; endogenous in cells; host or cells: Molt4; details: 6 h or 8 h
Experimental: Molt4 cells were treated with the indicated compounds for the indicated time in FIG. 1A-FIG. 1F and FIG. 3A-FIG. 3B. Cells were lysed in M-PER™ buffer (Thermo Scientific) containing protease/phosphatase inhibitor cocktail (Roche®). Protein concentration was measured using a bicinchoninic acid (BCA) assay (Pierce™). Equivalent amounts of each sample were loaded on 4-12% Bis-Tris gels (Invitrogen™), transferred to nitrocellulose membranes, and immunoblotted with antibodies against the indicated proteins. IRDye®800-labeled goat anti-rabbit IgG and IRDye®680-labeled goat anti-mouse IgG (LI-COR®) secondary antibodies were purchased for LI-COR®, and membranes were detected on an Odyssey® detection system (LI-COR® Biosciences).

- IC50 [1]: > 10 µM
- IC50 [2]: 14 µM
- change in abundance of PIP4K2A (proteomics) [4]: no detectable change in abundance
- change in abundance of PIP4K2B (proteomics) [5]: no detectable change in abundance
- ERF degradation, as seen in FIG. 1D [6]: scored as a potential degraded protein
Structure (SMILES): Cc1ncsc1-c1ccc([C@H](C)NC(=O)C2C[C@@H](O)CN2C(=O)[C@@H](NC(=O)CCCCC(=O)Nc2ccc(C(=O)Nc3cccc(Nc4cc(-c5c[nH]c6ccccc56)ncn4)c3)cc2)C(C)(C)C)cc1 (stereo partly drawn) [Compound 1, N1-(4-((3-((6-(1H-indol-3-yl)pyrimidin-4-yl)amino)phenyl)carbamoyl)phenyl)-N6-((2S)-1-((4R)-4-hydroxy-2-(((S)-1-(4-(4-methylthiazol-5-yl)phenyl)ethyl)carbamoyl)pyrrolidin-1-yl)-3,3-dimethyl-1-oxobutan-2-yl)adipamide]
- ERF degradation, validation by proteomics analysis [3]: not validated as a confirmed degraded protein
